Test results from patent US20240148821A1, “PHARMACEUTICAL USE OF CYCLIC PEPTIDE COMPOUND” (CHUGAI SEIYAKU KABUSHIKI KAISHA, priority 2021, published 2024).
Numbered stars: 1 amine (or outer) side, 2 acyl side, 3 side chain; on linkers, the order of the positions; unused ones are H or OH. Bridge positions count the residues as written; N and C are the ends. Square brackets hold non-standard residues; d marks the D form. Peptide text beside a SMILES is read from it. * marks the point of attachment. hPhe(3,5-F2-4-CF3) = N[C@@H](CCc1cc(F)c(C(F)(F)F)c(F)c1)C(=O)O; hPhe(3-Cl-4-CF3) = N[C@@H](CCc1ccc(C(F)(F)F)c(Cl)c1)C(=O)O; NMePhe(4-CF3) = CN[C@@H](Cc1ccc(C(F)(F)F)cc1)C(=O)O; X20 = Cc1cncc(C[C@@H](C(=O)[*:2])N(C)[*:1])c1; NMeAbu(4,4,4-F3) = CN[C@@H](CC(F)(F)F)C(=O)O; NMePhe(4-Me) = CN[C@@H](Cc1ccc(C)cc1)C(=O)O; NMedβ3hAla = C[C@H](CC(=O)[*:2])N(C)[*:1]; NMeGly(cPent) = CN[C@H](C(=O)O)C1CCCC1; NMe3Pal = CN[C@@H](Cc1cccnc1)C(=O)O; NMeCha = CN[C@@H](CC1CCCCC1)C(=O)O; Hyp = O=C(O)[C@@H]1C[C@@H](O)CN1; NMeChg = CN[C@H](C(=O)O)C1CCCCC1; NMeI = CC[C@H](C)[C@H](NC)C(=O)O; N(CH2CH2)2CF2 = FC1(F)CCN(*)CC1; NMeD = CN[C@@H](CC(=O)O)C(=O)O; dNMeD = CN[C@H](CC(=O)O)C(=O)O; NMeL = CN[C@@H](CC(C)C)C(=O)O; NMeV = CN[C@H](C(=O)O)C(C)C; d(β3hA) = C[C@@H](N)CC(=O)O; Morpholide = C1CN(*)CCO1; NMeA = CN[C@@H](C)C(=O)O; NMeAib = CNC(C)(C)C(=O)O; Piperidide = C1CCN(*)CC1; Pyrrolidide = C1CCN(*)C1; dNMeA = CN[C@H](C)C(=O)O; Ac5c = NC1(C(=O)O)CCCC1; Aze = O=C(O)[C@@H]1CCN1; NEtG = CCNCC(=O)O; Sar = CNCC(=O)O

How the values were obtained:
[1] = tested on: Human pancreatic cancer cell line AsPC-1 (G12D mutation Kras); test: AsPC-1 cell growth inhibition (AsPC-1 CGI); format: cell-based; settings: read-out: AsPC-1 cell growth inhibition, 50% growth inhibitory concentration (IC50 value); 96 hours, CellTiter-Glo, values classified in ranges
[2] = target: protein-protein interaction between Kras and SOS1 (biotin-tagged human Kras loaded with GDP, His-tagged human SOS1) (Homo sapiens (Human), UniProt P01116, G12D); test: Protein-protein interaction inhibition between Kras and SOS1 (KrasG12D-SOS PPI) using AlphaScreen; format: biochemical; settings: AlphaScreen; biotin-tagged human Kras loaded with GDP, His-tagged human SOS1; read-out: KRAS G12D-SOS PPI IC50;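 further: kras produced in E. coli, Ni-coupled donor beads and streptavidin acceptor beads, excitation 680 nm with emission detected at 520–620 nm via singlet oxygen transfer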

Row | Structure (SMILES) | IC50 [1] [nM] | IC50 [2] [nM]
1 | CC[C@H](C)[C@@H]1NC(=O)[C@H](CC(C)C)N(C)C(=O)C[C@@H](C)N(C)C(=O)[C@H]([C@@H](C)CC)N(C)C(=O)C2(CCCC2)NC(=O)[C@@H]2CCCN2C(=O)[C@H](CCc2ccc(C(F)(F)F)c(Cl)c2)NC(=O)CN(C)C(=O)[C@H](Cc2ccc(C)cc2)N(C)C(=O)[C@@H]2CCN2C(=O)[C@H](C)N(C)C1=O [Compound 1793] (cyclo([Ac5c][NMeI][NMedβ3hAla][NMeL]I[NMeA][Aze][NMePhe(4-Me)][Sar][hPhe(3-Cl-4-CF3)]P)) | ≤ 20 | 1.9
2 | CCO[C@@H]1C[C@H]2C(=O)NC3(CCCC3)C(=O)N(C)[C@@H](C3CCCCC3)C(=O)N(C)[C@H](C(=O)N3CCCC3)CC(=O)N(C)[C@@H](CC(F)(F)F)C(=O)N[C@@H]([C@@H](C)CC)C(=O)N(C)CC(=O)N(C)CC(=O)N(C)[C@@H](Cc3ccc(C)cc3)C(=O)N(C)CC(=O)N[C@@H](CCc3cc(F)c(C(F)(F)F)c(F)c3)C(=O)N2C1 [Compound 1301] ([NMeAbu(4,4,4-F3)]I[Sar][Sar][NMePhe(4-Me)][Sar][hPhe(3,5-F2-4-CF3)][Hyp](Et)[Ac5c][NMeChg][NMeD]-Pyrrolidide; lactam N-11) | ≤ 20 | 0.67
3 | CC[C@H](C)[C@@H]1NC(=O)[C@H](C)N(C)C(=O)C[C@@H](C(=O)N2CCCCC2)N(C)C(=O)[C@H](C(C)C)N(C)C(=O)C2(CCCC2)NC(=O)[C@@H](CC(=O)N2CCC(F)(F)CC2)N(C)C(=O)[C@H](CCc2ccc(C(F)(F)F)c(Cl)c2)NC(=O)CN(C)C(=O)[C@H](CC2CCCCC2)N(C)C(=O)CN(C)C(=O)CN(C)C1=O [Compound 1025] ([NMeA]I[Sar][Sar][NMeCha][Sar][hPhe(3-Cl-4-CF3)][dNMeD](N(CH2CH2)2CF2)[Ac5c][NMeV][NMeD]-Piperidide; lactam N-11) | > 500 | 4.3
4 | CC[C@H](C)[C@@H]1NC(=O)[C@H](C)N(C)C(=O)C[C@@H](C)NC(=O)[C@H](C2CCCC2)N(C)C(=O)C2(CCCC2)NC(=O)[C@@H]2CCCN2C(=O)[C@H](CCc2ccc(C(F)(F)F)c(Cl)c2)NC(=O)[C@@H](C)N(C)C(=O)[C@H](Cc2cccnc2)N(C)C(=O)[C@@H]2CCN2C(=O)[C@H](C)N(C)C1=O [Compound 1011] (cyclo([Ac5c][NMeGly(cPent)][d(β3hA)][NMeA]I[NMeA][Aze][NMe3Pal][dNMeA][hPhe(3-Cl-4-CF3)]P)) | > 500 | 38
5 | CC[C@H](C)[C@@H]1NC(=O)[C@H](CC(C)C)N(C)C(=O)C[C@@H](C(=O)N2CCOCC2)N(C)C(=O)[C@H]([C@@H](C)CC)N(C)C(=O)C2(CCCC2)NC(=O)[C@@H]2CCCN2C(=O)[C@H](CCc2ccc(C(F)(F)F)c(Cl)c2)NC(=O)CN(CC)C(=O)[C@H](Cc2ccc(C(F)(F)F)cc2)N(C)C(=O)[C@@H]2CCN2C(=O)[C@H](C)N(C)C1=O [Compound 1151] ([NMeL]I[NMeA][Aze][NMePhe(4-CF3)][NEtG][hPhe(3-Cl-4-CF3)]P[Ac5c][NMeI][NMeD]-Morpholide; lactam N-11) | ≤ 20 | 5.2
6 | CC[C@H](C)[C@@H]1NC(=O)[C@H](CC(C)C)N(C)C(=O)C[C@@H](C(=O)N2CCCCC2)N(C)C(=O)[C@H](C2CCCCC2)N(C)C(=O)C2(CCCC2)NC(=O)[C@H](Cc2cncc(C)c2)N(C)C(=O)[C@H](CCc2ccc(C(F)(F)F)c(Cl)c2)NC(=O)CN(C)C(=O)[C@H](CC2CCCCC2)N(C)C(=O)CN(C)C(=O)CN(C)C1=O [Compound 1087] ([NMeL]I[Sar][Sar][NMeCha][Sar][hPhe(3-Cl-4-CF3)][X20][Ac5c][NMeChg][NMeD]-Piperidide; lactam N-11) | > 500 | 15
7 | CCO[C@@H]1C[C@H]2C(=O)NC3(CCCC3)C(=O)N(C)[C@@H](C3CCCC3)C(=O)N(C)[C@H](C)CC(=O)N(C)[C@@H](CC(C)C)C(=O)N[C@@H]([C@@H](C)CC)C(=O)N(C)CC(=O)N(C)CC(=O)N(C)[C@@H](Cc3ccc(C(F)(F)F)cc3)C(=O)N(C)CC(=O)N[C@@H](CCc3cc(F)c(C(F)(F)F)c(F)c3)C(=O)N2C1 [Compound 66] (cyclo([Ac5c][NMeGly(cPent)][NMedβ3hAla][NMeL]I[Sar][Sar][NMePhe(4-CF3)][Sar][hPhe(3,5-F2-4-CF3)][Hyp](Et))) | ≤ 20 | 3.6
8 | CC[C@H](C)[C@@H]1NC(=O)[C@H](C)N(C)C(=O)C[C@@H](C)N(C)C(=O)[C@H](CC(C)C)NC(=O)C(C)(C)N(C)C(=O)[C@H](CC(C)C)NC(=O)[C@H](CCc2ccc(C(F)(F)F)c(Cl)c2)NC(=O)CN(C)C(=O)[C@H](CC2CCCCC2)N(C)C(=O)CN(C)C(=O)CN(C)C1=O [Compound 1380] (cyclo(I[Sar][Sar][NMeCha][Sar][hPhe(3-Cl-4-CF3)]L[NMeAib]L[NMedβ3hAla][NMeA])) | > 500 | 16
